Seven compounds from PubChem BioAssay (NCI) can be followed below.

The structures appear in SMILES notation.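 All cell lines were grown in 96-well plates and treated with compound for 48 hours. Here, GI50 denotes the concentration required for 50% inhibition of growth. Definition used: TGI = concentration required for complete inhibition of growth.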

Test systems include HCT-15 colon; NCI-H460 lung; SK-MEL-28 melanoma; T-47D breast; HCC-2998 colon; COLO 205 colon; NCI-H522 lung; NCI/ADR-RES ovarian; BT-549 breast; ACHN renal.
Experiment in all cases: NCI tumour cell line growth inhibition, 48 h

In the case of `Cc1cc(-c2ccccc2)c(C)n1Cc1ccc(Cl)cc1`, the GI50 with HCT-15 colon was 2.86 µM; with NCI-H460 lung, 3.75 µM; in the assay with SK-MEL-28 melanoma it was 6.18 µM; with T-47D breast, 5.26 µM; in the assay on HCC-2998 colon, 15.1 µM; in the assay on COLO 205 colon, 5.96 µM. The GI50 with NCI-H522 lung was 2.57 µM; in the assay with NCI/ADR-RES ovarian, 3.64 µM; with BT-549 breast, 5.5 µM; with ACHN renal it was 4.99 µM. The TGI is > 100 µM in the assay on HCT-15 colon; > 100 µM in the assay on NCI-H460 lung; > 100 µM in the assay on SK-MEL-28 melanoma; > 100 µM with T-47D breast; 93.7 µM with HCC-2998 colon; 27.8 µM in the assay on COLO 205 colon. The TGI with NCI-H522 lung is 9.26 µM; in the assay with NCI/ADR-RES ovarian it was 66.3 µM; in the assay on BT-549 breast, > 100 µM; with ACHN renal, > 100 µM.
Consider `Cn1c2ccccc2c2cc(-c3ccccc3)c3c(c21)C(=O)C=CC3=O`, for which the TGI in the assay with HCT-15 colon was 42.1 µM; in the assay on NCI-H460 lung, 45.5 µM; with SK-MEL-28 melanoma it was 40.2 µM; in the assay with T-47D breast, 49.9 µM; in the assay on HCC-2998 colon it was > 88.9 µM; in the assay on COLO 205 colon, 35.1 µM. Also, the TGI in the assay on NCI-H522 lung was 34.5 µM; in the assay with NCI/ADR-RES ovarian, > 100 µM; in the assay with BT-549 breast it was 26.5 µM; with ACHN renal it was 41.3 µM.
Consider `c1ccc(-c2n(Cc3ccc4ccccc4n3)c3ccccc3[n+]2Cc2ccc3ccccc3n2)cc1`, for which the GI50 in the assay with HCT-15 colon is 2.23 µM; with NCI-H460 lung, 0.367 µM; with SK-MEL-28 melanoma, 0.359 µM; with T-47D breast it was 0.193 µM; with HCC-2998 colon, 0.319 µM; in the assay on COLO 205 colon, 0.181 µM. For the same compound, the GI50 is 0.356 µM with NCI-H522 lung, 13.6 µM in the assay on NCI/ADR-RES ovarian, 0.31 µM with BT-549 breast and 1.41 µM in the assay with ACHN renal. Also, the TGI with HCT-15 colon turned out to be 5.99 µM; in the assay on NCI-H460 lung, 1.36 µM; in the assay on SK-MEL-28 melanoma, 1.44 µM; with T-47D breast it was 1.96 µM; with HCC-2998 colon it was 1.37 µM; in the assay with COLO 205 colon, 0.415 µM. Further, the TGI with NCI-H522 lung is 1.69 µM; with NCI/ADR-RES ovarian, > 55.6 µM; in the assay with BT-549 breast, 1.32 µM; in the assay on ACHN renal it was 3.01 µM.
As to `CN(C)CCCNC(=O)c1cc2c3ccccc3[nH]c2c2ncccc12`, the GI50 is 11.6 µM in the assay on HCT-15 colon; 6.37 µM in the assay on NCI-H460 lung; 14.3 µM with SK-MEL-28 melanoma; 19.4 µM in the assay on T-47D breast; 10.8 µM with HCC-2998 colon; 4.43 µM with COLO 205 colon. The GI50 with NCI-H522 lung was 14.5 µM; in the assay with NCI/ADR-RES ovarian it was 19.2 µM; in the assay with BT-549 breast, 9.33 µM; in the assay on ACHN renal it was 5.23 µM. Moreover, the TGI in the assay with HCT-15 colon worked out at 58.5 µM; in the assay on NCI-H460 lung it was 38.6 µM; in the assay on SK-MEL-28 melanoma, 31.1 µM; with T-47D breast, 61.2 µM; with HCC-2998 colon it was 23.4 µM; in the assay on COLO 205 colon, 16.6 µM. Moreover, the TGI in the assay with NCI-H522 lung amounted to 37.7 µM; in the assay on NCI/ADR-RES ovarian, 66.1 µM; in the assay with BT-549 breast, 25.1 µM; in the assay on ACHN renal it was 68.2 µM.
Consider `COc1cc2c(cc1OCCCCC(=O)Nc1ccc(-c3nc4ccccc4s3)cc1)N=C[C@@H]1CCCN1C2=O`, for which the GI50 in the assay on HCT-15 colon was 2.85 µM; with NCI-H460 lung it was 1.67 µM; in the assay on SK-MEL-28 melanoma it was 2.23 µM; in the assay on T-47D breast, 1.96 µM; in the assay on HCC-2998 colon it was 1.58 µM; with COLO 205 colon, 1.69 µM. In addition, the GI50 in the assay with NCI-H522 lung is 0.972 µM; in the assay on NCI/ADR-RES ovarian it was 10.9 µM; in the assay with BT-549 breast, 1.13 µM; in the assay with ACHN renal it was 3 µM. Moreover, the TGI came out at 9.81 µM in the assay on HCT-15 colon; 3.6 µM in the assay with NCI-H460 lung; 5.81 µM in the assay with SK-MEL-28 melanoma; 10.1 µM in the assay on T-47D breast; 3.23 µM with HCC-2998 colon; 3.07 µM in the assay on COLO 205 colon. Besides, the TGI with NCI-H522 lung was 2.65 µM; in the assay with NCI/ADR-RES ovarian, 62.6 µM; with BT-549 breast, 2.36 µM; with ACHN renal, 8.53 µM.
As for `CCOC(=O)Nc1nc2c(F)c(F)c(F)cc2s1`, the GI50 in the assay on HCT-15 colon is > 100 µM; with NCI-H460 lung, 71.9 µM; with SK-MEL-28 melanoma, > 100 µM; in the assay on T-47D breast, 61.8 µM; with HCC-2998 colon it was > 100 µM; with COLO 205 colon it was > 100 µM. Besides, the GI50 in the assay with NCI-H522 lung is 36.9 µM; with NCI/ADR-RES ovarian it was > 100 µM; in the assay on BT-549 breast it was 58.3 µM; in the assay with ACHN renal, > 100 µM. Further, the TGI in the assay with HCT-15 colon, in the assay with NCI-H460 lung, in the assay on SK-MEL-28 melanoma, in the assay with T-47D breast, in the assay with HCC-2998 colon and with COLO 205 colon was > 100 µM throughout. The TGI in the assay on NCI-H522 lung, in the assay on NCI/ADR-RES ovarian, in the assay with BT-549 breast and in the assay with ACHN renal was > 100 µM throughout.
For `O=C1Nc2ccccc2C12CC(c1ccccc1)=NN2` (stereo not given), the GI50 was 4.17 µM in the assay with HCT-15 colon; 3.94 µM in the assay with NCI-H460 lung; 15.7 µM in the assay with SK-MEL-28 melanoma; 6.98 µM in the assay on T-47D breast; 36.1 µM in the assay with HCC-2998 colon; 4.62 µM in the assay on COLO 205 colon. Also, the GI50 was 4.66 µM in the assay on NCI-H522 lung, 7.49 µM with NCI/ADR-RES ovarian, 6.35 µM in the assay on BT-549 breast and 6.48 µM with ACHN renal. The TGI with HCT-15 colon is > 100 µM; in the assay with NCI-H460 lung, > 100 µM; with SK-MEL-28 melanoma, > 100 µM; with T-47D breast, > 100 µM; with HCC-2998 colon, > 100 µM; in the assay on COLO 205 colon it was 25.9 µM. Also, the TGI in the assay on NCI-H522 lung is 76 µM; in the assay with NCI/ADR-RES ovarian it was > 100 µM; in the assay with BT-549 breast it was > 100 µM; with ACHN renal, > 100 µM.
